# Measurements: patent US20240101562A1, “NOVEL COMPOUND, AND PHARMACEUTICAL COMPOSITION FOR PREVENTING OR TREATING RESISTANT CANCER, COMPRISING SAME” (HOLOSMEDIC, priority 2020, published 2024)
# Legend:
# Assay type in all cases: cell-based
# [1] = tested on: SKOV3-TR cell line (paclitaxel-resistant, derived from SKOV3); test: WST-1 assay, co-treatment with docetaxel, SKOV3-TR; conditions: docetaxel alone, 1 μM, three days
# Method: (§1) According to the results of WST-1 assays, which measure cell proliferation or survival, a reduction in metabolism in SKOV3 and SKOV3-TR was induced by docetaxel treatment.
# (§2) After SKOV3 and SKOV3-TR were co-treated with 79 types of compounds and docetaxel, the WST-1 assays were performed.
# (§3) Specifically, the two cancer cell lines grown in 96-well plates were treated with the 79 types of compounds at a low concentration (0.5 μM) or a high concentration (2 μM) and docetaxel, and the docetaxel concentration used herein were 1 μM for the SKOV3-TR cell line and 0.75 nM for the SKOV3 cell line. For cytotoxicity analysis, three days after the co-treatment of DMSO (docetaxel, compound solvent), docetaxel and the 79 types of compounds, the WST-1 assays were performed.
# [2] = tested on: SKOV3 cell line (epithelial ovarian cancer); test: WST-1 assay, co-treatment with docetaxel, SKOV3; conditions: docetaxel alone, 0.75 nM, SKOV3, three days
# Method: as §1, §2, §3
# [3] = tested on: SKOV3 cell line (epithelial ovarian cancer); test: WST-1 assay, co-treatment with paclitaxel, SKOV3; conditions: paclitaxel alone, 2 nM or 0.05 μM, SKOV3, three days
# Method: (§4) According to the results of WST-1 assays, which measure cell proliferation or survival, a reduction in metabolism in SKOV3 and SKOV3-TR was induced by paclitaxel treatment. The WST-1 assays were performed after SKOV3 and SKOV3-TR were co-treated with 79 types of compounds and paclitaxel.
# (§5) Specifically, the two cancer cell lines grown in 96-well plates were treated with the 79 types of compounds at a low concentration (0.5 μM) or a high concentration (2 μM) and paclitaxel, and the paclitaxel concentration used herein was 3 μM or 4 μM for the SKOV3-TR cell line, and 2 nM or 0.05 μM for the SKOV3 cell line. For cytotoxicity analysis, three days after co-treatment of DMSO (paclitaxel, compound solvent), paclitaxel and the 79 types of compounds, the WST-1 assays were performed.
# [4] = tested on: SKOV3-TR cell line (paclitaxel-resistant, derived from SKOV3); test: WST-1 assay, co-treatment with paclitaxel, SKOV3-TR; conditions: paclitaxel alone, 3 μM or 4 μM, three days
# Method: as §4, §5
SMILES,absorbance at 450 nm compared to the DMSO-treated group [1],absorbance at 450 nm compared to the DMSO-treated group [2],absorbance at 450 nm compared to the DMSO-treated group [3],absorbance at 450 nm compared to the DMSO-treated group [4]
CC(=O)O[C@@]12CO[C@@H]1C[C@H](O)[C@@]1(C)C(=O)[C@H](O)C3=C(C)[C@@H](OC(=O)[C@H](O)[C@@H](NC(=O)OC(C)(C)C)c4ccccc4)C[C@@](O)([C@@H](OC(=O)c4ccccc4)[C@H]21)C3(C)C [docetaxel],reduced,reduced,–,–
CC(=O)O[C@H]1C(=O)[C@@]2(C)[C@H]([C@H](OC(=O)c3ccccc3)[C@]3(O)C[C@H](OC(=O)[C@H](O)[C@@H](NC(=O)c4ccccc4)c4ccccc4)C(C)=C1C3(C)C)[C@]1(OC(C)=O)CO[C@@H]1C[C@@H]2O [paclitaxel],–,–,reduced,reduced
